Marks after values point to notes of the source that are not given here.
Legend:
mouse = test: in vivo; details: 24 h
From the text: (§1) At the end of the study period, expired animals were counted for the calculation of LD50. The following arithmetic method from Karber (Arch. Exptl. Pathol. Pharmakol, […], 162, 480-483) was used for the determination of LD50: LD50=LD100−Σ×(a×b)/n
(§2) wherein n=total number of animals in a group; a=the difference between two successive doses of administered extract/substance; b=the average number of dead animals in two successive doses; and LD100=lethal dose causing the 100% death of all test animals.
(§3) Table 8 provides the LD50 values of the compounds determined by the Karber method.

in vivo = details: mouse
From the text: as §1, §2, §3

[1] = tested on: malondialdehyde in stomach tissue, induced by 80% ethanol; test: Determination of malondialdehyde (MDA); assay type: in vivo, Albino Wistar rats; details: mean ± SE
Protocol: (§4) Albino Wistar rats of either sex, approximately the same age, weighing 150 to 200 g and fed on a diet of standard chow were used in this study. They were randomly divided into experimental groups of six rats each. Compounds (N-1 to N-18) 12.5, 25, and 50 mg/kg were given orally in the anti-ulcer studies and intraperitoneally for gastric secretion evaluation. The rats were sacrificed, and the stomachs removed and opened along the greater curvature, After washing with saline, the gastric lesions were quantified by a person unaware of the treatments. The animal study protocol was approved by the Research and Ethics Committee of the Experimental Animal Care Society, College of Pharmacy, King Saud University, Riyadh, Saudi Arabia.
Determination of malondialdehyde (MDA): The animals were sacrificed 1 hour after ethanol administration. The stomachs were removed and each was homogenized in 0.15 mol/L KCl (at 4° C.) in a Potter-Elvehjem type C homogenizer to give a 10% w/v homogenate. Aliquots of homogenate 1 mL in volume were incubated at 37° C. for 3 hours in a metabolic shaker. Then 1 mL of 10% aqueous TCA was added and mixed. The mixture was then centrifuged at 800 g for 10 minutes. One milliliter of the supernatant was removed and mixed with 1 mL of 0.67% w/v thiobarbituric acid in water and placed in a boiling water bath for 10 minutes. The mixture was cooled and diluted with 1 mL distilled water. The absorbance of the solution was then read at 535 nm. The content of malondialdehyde (nmol/g wet tissue) (index of the magnitude of lipid peroxidation) was then calculated, by reference to a standard curve of malondialdehyde solution. Table 7 provides the effect of compounds on the levels of MDA, NP_SH, and total protein in stomach tissue induced by 80% ethanol (mean±SE).

[2] = tested on: gastric secretion in pylorus-ligated Shay rats; test: Pylorus-ligated rats: gastric secretion, acidity and lesion index; assay type: in vivo, Albino Wistar rats; parameters: Ulcer Index, pylorus-ligated Shay rats: scale not given here; details: i.p., 6 h after pylorus ligation, mean ± SE
Protocol: as §4
Pylorus-ligated rats: Rats were fasted for 36 hours with access to water ad libitum before pylorus ligation under ether anesthesia was carried out. Care was taken not to cause bleeding or to occlude blood vessels. Compounds (N-3, N-8, N-11, and N-15) were administered intraperitoneally immediately after pylorus ligation. The rats were sacrificed at 6 hours after pylorus ligation. The stomachs were removed, the contents were collected, volumes measured, centrifuged and analyzed for tritratable acidity against […], NaOH at pH 7.0. Table 5 provides the effect of compounds on gastric secretion, acidity, and gastric lesion index in pylorus-ligated Shay rats (mean±SE).

[3] = tested on: total protein in stomach tissue, induced by 80% ethanol; test: Total protein in stomach tissue; assay type: in vivo, Albino Wistar rats; details: mean ± SE
[4] = dose 12.5, 80% ethanol-treated rats
[5] = dose 25, 80% ethanol-treated rats
[6] = dose 50, 80% ethanol-treated rats

Compound	Dead (of 10 animals) (mouse; 5 mg/kg)	Dead (of 10 animals) (mouse; 25 mg/kg)	Dead (of 10 animals) (mouse; 50 mg/kg)	Dead (of 10 animals) (mouse; 100 mg/kg)	Dead (of 10 animals) (mouse; 200 mg/kg)	MDA [1, 4]	MDA [1, 5]	MDA [1, 6]	Titratable Acidity ([2]; 12.5 mg/kg) [mEg/L]	Ulcer Index, pylorus-ligated Shay rats ([2]; 12.5 mg/kg)	Volume of Gastric Content ([2]; 12.5 mg/kg) [mL]	Titratable Acidity ([2]; 25 mg/kg) [mEg/L]	Ulcer Index, pylorus-ligated Shay rats ([2]; 25 mg/kg)	Volume of Gastric Content ([2]; 25 mg/kg) [mL]	Titratable Acidity ([2]; 50 mg/kg) [mEg/L]	Ulcer Index, pylorus-ligated Shay rats ([2]; 50 mg/kg)	Volume of Gastric Content ([2]; 50 mg/kg) [mL]	Total Protein [3, 4]	Total Protein [3, 5]	Total Protein [3, 6]	further results
COc1ccccc1C1NC(=O)NC=C1C(=O)c1ccc(N2CCCCC2)cc1 (stereo not shown) [Compound N-8, 4-(2-Methoxyphenyl)-5-[4-(piperidin-1-yl)benzoyl]-3,4-dihydropyrimidin-2(1H)-one]	0	2	6	9	10	6.63 ± 0.26^b nmol/g	4.83 ± 0.24***^b nmol/g	3.75 ± 0.07***^b nmol/g	161.11 ± 4.36	3.16 ± 0.30	10.50 ± 0.34	133.33 ± 3.22	2.50 ± 0.22	9.36 ± 1.22	115.00 ± 5.75	2.00 ± 0.13	6.46 ± 0.16	45.90 ± 1.14^b g/L	55.88 ± 1.71*^b g/L	66.26 ± 1.47 g/L	Dead (of 10 animals) (mouse; 300 mg/kg): 10; LD50 at 24 h (in vivo): 55.5 mg/kg
CN(C)c1ccc(C2NC(=O)NC=C2C(=O)c2ccc(N3CCCCC3)cc2)cc1 (stereo not shown) [Compound N-11, 4-(4-Dimethylaminophenyl)-5-[4-(piperidin-1-yl)benzoyl]-3,4-dihydropyrimidin-2(1H)-one]	–	–	–	–	–	5.16 ± 0.22***^b nmol/g	3.99 ± 0.17***^b nmol/g	3.36 ± 0.08***^b nmol/g	160.55 ± 3.48	2.83 ± 0.30	10.20 ± 0.29	141.11 ± 6.30	2.50 ± 0.42	7.35 ± 0.19	116.66 ± 4.63	2.33 ± 0.71	6.63 ± 0.21	53.89 ± 1.48*^b g/L	64.27 ± 2.08***^b g/L	72.25 ± 1.43***^b g/L	melting point: 185 to 187 °C
COc1ccc(C2NC(=O)NC=C2C(=O)c2ccc(N3CCCCC3)cc2)c(OC)c1OC (stereo not shown) [Compound N-15, 4-(2,3,4-Trimethoxyphenyl)-5-[4-(piperidin-1-yl)benzoyl]-3,4-dihydropyrimidin-2(1H)-one]	0	1	3	4	9	3.51 ± 0.08***^b nmol/g	2.72 ± 0.10***^b nmol/g	1.90 ± 0.06***^b nmol/g	116.11 ± 2.64	1.83 ± 0.304	6.68 ± 0.18	86.11 ± 3.98	1.50 ± 0.22	5.50 ± 0.24	73.33 ± 2.43	1.00 ± 0.36	4.76 ± 0.23	71.45 ± 1.43*^b g/L	81.43 ± 3.65***^b g/L	96.60 ± 1.18***^b g/L	Dead (of 10 animals) (mouse; 300 mg/kg): 10; LD50 at 24 h (in vivo): 116 mg/kg
O=C1NC=C(C(=O)c2ccc(N3CCCCC3)cc2)C(c2ccc([N+](=O)[O-])cc2)N1 (stereo not shown) [Compound N-3, 4-(4-Nitrophenyl)-5-[4-(piperidin-1-yl)benzoyl]-3,4-dihyropyrimidin-2(1H)-one]	0	0	2	5	8	4.47 ± 0.44***^b nmol/g	3.07 ± 0.16***^b nmol/g	1.95 ± 0.05***^b nmol/g	153.88 ± 5.40	2.33 ± 0.33	9.03 ± 0.24	97.77 ± 2.93	1.83 ± 0.304	6.31 ± 0.25	84.84 ± 2.38	1.16 ± 0.30	4.63 ± 0.22	58.68 ± 3.19*^b g/L	74.65 ± 3.79*^b g/L	95.80 ± 1.51***^b g/L	Dead (of 10 animals) (mouse; 300 mg/kg): 10; LD50 at 24 h (in vivo): 125 mg/kg

— US9856232B1, “Dihydropyrimidinone derivatives” (KING SAUD UNIVERSITY, priority 2017, dated 2018)
